{"source": "patent US8420336B2", "about": "“Method of bioassaying yokukansan” (priority 2008, dated 2013)", "key": {"[1]": {"molecular_target": "glutamate receptors", "test": "Non-selective binding test for test drug to glutamate receptors ([3H]L-glutamate competition)", "design": "species or system Wistar rat", "details": "labeled ligand of the assay; listed among the conditions of the experiment", "procedure": "(§1) 20 mg of a test drug (TJ-54 or an extract of the constituent crude drug) was weighed. Distilled water was added to the test drug so as to give a concentration of 20 mg/125 μL (20 mg/100 μL for the extract of the constituent crude drug), and further the resulting solution was diluted to 2-fold with DMSO, which was used as a stock solution. This stock solution was diluted to have each concentration.\n(1) Non-Selective Binding Test for Test Drug to Glutamate Receptors\n20 mL/g of 50 mM Tris-HCl buffer was added to the brain tissue collected from a Wistar rat. […]\n(§2) After completion of the incubation, the mixture was filtered through a glass fiber filter (Whatman 1821-915 GF/B, Whatman) using a cell harvester (Brandel MLR-48, Skatron micro-96, Perkin Elmer), and the filter was washed 3 to 6 times with 50 mM Tris-HCl buffer. Then, the radioactivity of [^3H]L-glutamate on the glass fiber filter was measured using a liquid scintillation counter (Wallac Counter, Perkin Elmer). As for the nonspecific binding, the radioactivity of [^3H]L-glutamate in the presence of 50 μM unlabeled L-glutamate was measured. As for the total binding, the radioactivity of [^3H]L-glutamate in the absence of the test drug was measured. The binding activity of the test drug was calculated from the following binding inhibition ratio (%). […]"}, "[2]": {"molecular_target": "AMPA receptors", "test": "Binding test for test drug to AMPA receptors ([3H]AMPA competition)", "design": "species or system Wistar rat", "details": "labeled ligand of the assay, listed among the conditions", "procedure": "as §1\n(2) Binding Test for Test Drug to AMPA Receptors\n20 mL/g of 50 mM Tris-HCl buffer (containing 200 mM KSCN) was added to the cerebral cortex tissue collected from a Wistar rat. […]\nas §2, with “of [^3H]AMPA” for “of [^3H]L-glutamate”, “of 1000” for “of 50”, “was evaluated on” for “was calculated from”, “the basis of the” for “the following”, “ratio obtained from the above formula.” for “ratio (%).”"}, "[3]": {"molecular_target": "glutamate binding site of NMDA receptors", "test": "Binding test for test drug to glutamate binding site of NMDA receptors ([3H]CGP-39653 competition)", "design": "species or system Wistar rat", "details": "labeled ligand of the assay; listed among the conditions", "procedure": "as §1\n(4) Binding Test for Test Drug to Glutamate Binding Site of NMDA Receptors\n20 mL/g of 50 mM Tris-HCl buffer was added to the cerebral cortex tissue collected from a Wistar rat. The resulting mixture was homogenized, and the homogenate was centrifuged (1,000×g for 10 minutes at 4° C.). […]\nas §2, with “of [^3H]CGP-39653” for “of [^3H]L-glutamate”, “of 1000” for “of 50”, “measured.” for “measured. The binding activity of the test drug was calculated from the following binding inhibition ratio (%).”"}, "[4]": {"molecular_target": "T1, glycine binding site of NMDA receptors (Rattus norvegicus, UniProt P35439)", "T1 construct": "cerebral cortex tissue collected from a Wistar rat; from tissue; host or cells: cerebral cortex of Wistar rat, membrane fraction", "test": "Binding test for test drug to glycine binding site of NMDA receptors ([3H]MDL-105519 competition)", "design": "species or system Wistar rat", "details": "labeled ligand of the assay; listed among the conditions", "method": "20 mL/g of 50 mM HEPES buffer was added to the cerebral cortex tissue collected from a Wistar rat. The resulting mixture was homogenized, and the homogenate was centrifuged (1,000×g for 10 minutes at 4° C.). Then, the resulting supernatant was collected and centrifuged (20,000×g for 20 minutes at 4° C.) to obtain a pellet. The pellet was resuspended in a buffer and the suspension was centrifuged (8,000×g for 20 minutes at 4° C.). Further, the resulting supernatant was collected and centrifuged (48,000×g for 20 minutes at 4° C.) to obtain a pellet. […]\nAfter completion of the incubation, the mixture was filtered through a glass fiber filter (Whatman 1821-915 GF/B, Whatman) using a cell harvester (Brandel MLR-48, Skatron micro-96, Perkin Elmer), and the filter was washed 3 to 6 times with 50 mM HEPES buffer. Then, the radioactivity of [^3H]MDL-105519 on the glass fiber filter was measured using a liquid scintillation counter (Wallac Counter, Perkin Elmer). As for the nonspecific binding, the radioactivity of [^3H]MDL-105519 in the presence of 10 μM unlabeled MDL-105519 was measured. As for the total binding, the radioactivity of [^3H]MDL-105519 in the absence of the test drug was measured. The binding activity of the test drug was evaluated on the basis of the binding inhibition ratio obtained from the above formula. […]"}, "[5]": {"molecular_target": "T2, human recombinant mGluR5 (Homo sapiens, UniProt P41594)", "T2 construct": "purchased Perkin Elmer; host or cells: CHO-K1 cell membranes", "T2 sequence (P41594 21-1212)": "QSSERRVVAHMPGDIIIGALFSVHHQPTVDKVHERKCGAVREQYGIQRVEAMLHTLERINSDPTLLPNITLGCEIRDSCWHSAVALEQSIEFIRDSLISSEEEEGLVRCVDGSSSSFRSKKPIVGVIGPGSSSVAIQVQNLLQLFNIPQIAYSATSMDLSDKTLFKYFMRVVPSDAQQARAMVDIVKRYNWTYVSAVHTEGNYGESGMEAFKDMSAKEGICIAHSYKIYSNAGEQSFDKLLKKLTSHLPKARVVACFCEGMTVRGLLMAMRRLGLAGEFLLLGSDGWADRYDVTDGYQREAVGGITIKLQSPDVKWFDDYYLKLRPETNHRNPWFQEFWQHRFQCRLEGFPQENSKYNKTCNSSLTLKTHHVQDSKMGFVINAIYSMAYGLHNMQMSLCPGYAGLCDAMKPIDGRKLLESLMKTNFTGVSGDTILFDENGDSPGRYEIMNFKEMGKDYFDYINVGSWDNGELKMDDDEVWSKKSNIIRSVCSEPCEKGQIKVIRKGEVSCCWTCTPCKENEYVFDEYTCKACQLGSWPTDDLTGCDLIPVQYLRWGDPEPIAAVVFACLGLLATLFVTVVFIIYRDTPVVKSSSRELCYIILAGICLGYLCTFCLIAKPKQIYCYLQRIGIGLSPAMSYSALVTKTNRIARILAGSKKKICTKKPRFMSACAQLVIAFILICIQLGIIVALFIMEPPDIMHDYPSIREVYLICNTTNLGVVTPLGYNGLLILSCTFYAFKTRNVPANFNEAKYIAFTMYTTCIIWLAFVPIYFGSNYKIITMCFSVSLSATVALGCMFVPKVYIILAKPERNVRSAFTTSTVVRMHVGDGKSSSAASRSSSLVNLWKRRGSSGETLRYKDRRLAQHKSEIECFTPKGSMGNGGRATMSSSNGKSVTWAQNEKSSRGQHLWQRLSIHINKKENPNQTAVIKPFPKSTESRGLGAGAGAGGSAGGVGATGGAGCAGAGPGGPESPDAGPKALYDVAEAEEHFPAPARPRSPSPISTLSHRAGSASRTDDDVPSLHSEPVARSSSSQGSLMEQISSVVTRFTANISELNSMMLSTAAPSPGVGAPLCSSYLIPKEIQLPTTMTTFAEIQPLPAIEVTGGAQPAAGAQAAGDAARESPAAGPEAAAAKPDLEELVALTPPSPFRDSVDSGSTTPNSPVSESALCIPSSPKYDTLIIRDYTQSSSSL", "test": "Binding test for test drug to metabotropic glutamate receptor mGluR5 ([3H]quisqualic acid competition)", "details": "labeled ligand of the assay; listed among the conditions", "method": "(6) Binding Test for Test Drug to Metabotropic Glutamate Receptor mGluR5\n30 μg protein/100 μL of a CHO-K1 cell membrane solution, 20 μL of [^3H]quisqualic acid (final concentration: 0.03 μM) and 1.1 μL of the test drug solution of each concentration were added to a 1 mL tube, and the resulting mixture was incubated at 25° C. for 2 hours. In the control group, a DMSO solution (final concentration: 0.5%) was added, and the resulting mixture was incubated in the same manner.\nAfter completion of the incubation, the mixture was filtered through a glass fiber filter (Whatman 1821-915 GF/B, Whatman) using a cell harvester (Micro 96 FilterMate, Perkin Elmer), and the filter was washed 6 times with 20 mM HEPES buffer. Then, the radioactivity of [^3H]quisqualic acid on the glass fiber filter was measured using a liquid scintillation counter (Wallac Counter). As for the nonspecific binding, the radioactivity of [^3H]quisqualic acid in the presence of 1000 μM unlabeled L-glutamate was measured. As for the total binding, the radioactivity of [^3H]quisqualic acid in the absence of the test drug was measured. The binding activity of the test drug was evaluated on the basis of the binding inhibition ratio obtained from the above formula.\nThe respective conditions in this experiment are as follows. […]"}, "[6]": {"molecular_target": "kainate receptors", "test": "Binding test for test drug to kainate receptors ([3H]kainic acid competition)", "design": "species or system Wistar rat", "details": "labeled ligand of the assay; listed among the conditions", "procedure": "as §1\n(3) Binding Test for Test Drug to Kainate Receptors\n20 mL/g of 50 mM Tris-HCl buffer was added to the brain tissue excluding the cerebellum tissue collected from a Wistar rat. The resulting mixture was homogenized, and centrifugation (48,000×g for 15 minutes at 4° C.) of the homogenate was repeated three times to obtain a membrane fraction. […]\nThen, the radioactivity of [^3H]kainic acid on the glass fiber filter was measured using a liquid scintillation counter (Wallac Counter, Perkin Elmer). As for the nonspecific binding, the radioactivity of [^3H]kainic acid in the presence of 1000 μM unlabeled L-glutamate was measured. As for the total binding, the radioactivity of [^3H]kainic acid in the absence of the test drug was measured. The binding activity of the test drug was evaluated on the basis of the binding inhibition ratio obtained from the above formula. […]"}}, "note": "Read-outs that look alike come from different tables or passages of the source."}
{"smiles": "N[C@@H](CCC(=O)O)C(=O)O", "note": "[[^3H]L-glutamate, L-glutamate]", "values": [{"measurement": "Kd", "setting": "[1]", "result": 293, "unit": "nM"}]}
{"smiles": "Cc1onc(O)c1CC(N)C(=O)O", "note": "(stereo not drawn) [[^3H]AMPA, α-amino-3-hydroxy-5-methyl-4-isoxazolepropionate]", "values": [{"measurement": "Kd", "setting": "[2]; Kd1, read-out: Kd (Kd1)", "result": 18, "unit": "nM"}, {"measurement": "Kd", "setting": "[2]; Kd2, read-out: Kd (Kd2)", "result": 990, "unit": "nM"}]}
{"smiles": "CCCC(=CC(N)C(=O)O)CP(=O)(O)O", "note": "(stereo not shown) [[^3H]CGP-39653]", "values": [{"measurement": "Kd", "setting": "[3]", "result": 19, "unit": "nM"}]}
{"smiles": "O=C(O)C(=Cc1c(C(=O)O)[nH]c2cc(Cl)cc(Cl)c12)c1ccccc1", "note": "[[^3H]MDL-105519]", "values": [{"measurement": "Kd", "setting": "[4]", "result": 6, "unit": "nM"}]}
{"smiles": "N[C@@H](Cn1oc(=O)[nH]c1=O)C(=O)O", "note": "[[^3H]quisqualic acid, quisqualic acid]", "values": [{"measurement": "Kd", "setting": "[5]", "result": 26, "unit": "nM"}]}
{"smiles": "C=C(C)[C@H]1CN[C@H](C(=O)O)[C@H]1CC(=O)O", "note": "[[^3H]kainic acid, kainic acid]", "values": [{"measurement": "Kd", "setting": "[6]", "result": 12, "unit": "nM"}]}
